Measured values published in patent US20070295251A1, “EPSP SYNTHASES: COMPOSITIONS AND METHODS OF USE” (Athenix Corporation, priority 2006, published 2007).

Columns and labels:
[1] = molecular target: GRG1 EPSP synthase variant EVO3, SEQ ID NO:37 (Q-loop core position 2 K, 10 G, 14 P, 16 L) (Pseudomonas putida, UniProt Q683S1, D85K/I93G/I99L/T97P); assay: EPSP synthase kinetics (AMPLEX Red fluorescence assay); assay type: biochemical; settings: in words
Description: (§3) Extracts were typically incubated with all assay components except shikimate-3-phosphate and AMPLEX™ Red for 5 minutes at room temperature, and assays were started by adding shikimate-3-phosphate and AMPLEX® Red.
(§4) Following full determination of kinetic parameters, the kinetic constants were determined as follows, adjusting for the quantity of protein determined by either antibody dot-blot analysis as described herein, or by Bradford Assay, as known in the art.

[2] = molecular target: GRG1 EPSP synthase variant EVO4, SEQ ID NO:43 (Q-loop core position 2 N, 10 I, 14 A, 16 I) (Pseudomonas putida, UniProt Q683S1, D85N/T97A); assay: as above; assay type: biochemical; settings: in words
Description: as §3, §4

[3] = molecular target: GRG1 EPSP synthase variant EVO2, SEQ ID NO:5 (clone L1-C; Q-loop core position 12 A) (Pseudomonas putida, UniProt Q683S1, M95A); assay: as above; assay type: biochemical; settings: in words, relative to GRG1
Description: as §3, §4

[4] = test system: maize plants expressing GRG1(EVO6); assay: Glyphosate spray of transgenic maize plants; assay type: in vivo; settings: 14 mM glyphosate spray
Source text: (§1) The grg1 (evo5) gene and grg1 (evo6) genes were each cloned into a plant expression vector suitable for Agrobacterium-mediated transformation, such vector containing at least (1) a promoter capable of expression in a plant cell, (2) a chloroplast peptide leader coding sequence, (3) a transcriptional terminator. The resulting clones, pAX4014 and pAX4032 respectively, were transferred to Agrobacterium as known in the art and described herein, and the resulting Agrobacterium strain used to develop transgenic maize callus and ultimately transgenic maize plants.
(§2) To transgenic plants were sprayed with glyphosate formulations of 14 mM glyphosate after adaptation to soil, and the resistance to the herbicide was scored after two weeks relative to non-transgenic controls.

[5] = test system: maize plants expressing GRG1(EVO5); assay: Glyphosate spray of transgenic maize plants; assay type: in vivo; settings: 14 mM glyphosate spray
Source text: as §1, §2

[6] = molecular target: GRG1 EPSP synthase variant GRG1(EVO1), SEQ ID NO:28 (Q-loop core position 10 M, 12 L, 16 F) (Pseudomonas putida, UniProt Q683S1, I93M/I99F/M95L); assay: EPSP synthase kinetics (AMPLEX Red fluorescence assay); assay type: biochemical; settings: in words, relative to GRG1
Description: as §3, §4

[7] = test system: BL21*DE3 competent E. coli cells; assay: Screening for glyphosate resistance on plates (growth on M63+ agar with glyphosate); assay type: cell-based; settings: kanamycin, IPTG, glyphosate concentration as in value
Description: Library ligations were transformed into BL21*DE3 competent E. coli cells (Invitrogen). The transformations were performed according to the manufacturer's instructions with the following modifications. After incubation for 1 hour at 37° C. in SOC medium, the cells were sedimented by centrifugation (5 minutes, 1000×g, 4° C.). The cells were washed with 1 ml M63+, centrifuged again, and the supernatant decanted. The cells were washed a second time with 1 ml M63+ and resuspended in 200 ul M63+.
For selection of mutant GRG1 enzymes conferring glyphosate resistance in E. coli, the cells were plated onto M63+ agar medium plates containing 50 mM glyphosate, 0.05 mM IPTG (isopropyl-beta-D-thiogalactopyranoside), and 50 ug/ml kanamycin. M63+ medium contains 100 mM KH2PO4, 15 mM (NH4)2SO4, 50 μM CaCl2, 1 μM FeSO4, 50 μM MgCl2, 55 mM glucose, 25 mg/liter L-proline, 10 mg/liter thiamine HCl, sufficient NaOH to adjust the pH to 7.0, and 15 g/liter agar. The plates were incubated for 36 hours at 37° C.

EPSP synthase = test system: EPSP synthase
Description: For any one glyphosate concentration, EPSP synthase activity was measured as a function of a broad range of PEP concentrations. The data were fit to the Michaelis-Menten equation using […]® software (Synergy Software) and used to determine the Km (Km apparent) of the EPSP synthase at that glyphosate concentration.

[8] = Description: DNA from grg1 (evo5) was mutagenized by PCR as known in the art, and cloned into pRSF1b (Invitrogen), and a library of mutagenized clones identified by virtue of growth on 50 mM glyphosate.

C=C(OP(=O)(O)O)C(=O)O [PEP, phosphoenolpyruvic acid]
Km for PEP ([1]; vs GRG1): virtually identical to GRG1 | Km for PEP [2]: reasonable, though somewhat elevated

O=C(O)CNCP(=O)(O)O [glyphosate, N-phosphonomethylglycine]
Ki for glyphosate [3]: improved | Ki for glyphosate ([1]; relative to GRG1): improved | Seed Set [4]: YES | Survival at 2 weeks post-spray [4]: YES | Chlorosis ([4]; two weeks): NONE | Stunting ([4]; two weeks): NONE | Seed Set [5]: YES | Survival at 2 weeks post-spray [5]: YES | Chlorosis ([5]; two weeks): NONE | Stunting ([5]; two weeks): NONE | Ki for glyphosate [6]: improved | Ki for glyphosate ([2]; relative to GRG1): improved

GRG1(EVO7): variant after mutagenesis of grg1 (evo6) in the Q-loop region (SEQ ID NO:64) (ITSEGVKPVAPFIKCGESGLSVRAFTPIVALSK; GRG1 variant - GRG1(4S-39))
growth on glyphosate plates (glyphosate resistance in E. coli) [7]: glyphosate resistant | kinetic properties / parameters (in words) (EPSP synthase): further improved kinetic properties over GRG1(EVO6)

GRG1(EVO8): variant after mutagenesis of grg1 (evo6) in the Q-loop region (SEQ ID NO:65) (ITSEGVKPVAPFIKCGESGLSGRMFPPIVALSK; GRG1 variant - GRG1(4S-60))
growth on glyphosate plates (glyphosate resistance in E. coli) [7]: glyphosate resistant | kinetic properties / parameters (in words) (EPSP synthase): further improved kinetic properties over GRG1(EVO6)

B1: GRG1(EVO5): GRG1 Q-loop variant from Library 4 (SEQ ID NO:56) (protein)
chain: MKVTIQPGDLTGIIQSPASKSSMQRACAAALVAKGISEIINPGHSNDDKAARDIVSRLGARLEDQPDGSLQITSEGVKPVAPFIECGESGLSSRIFTPLVALSKEEVTIKGSGSLVTRPMDFFDEILPHLGVKVKSNQGKLPLVIQGPLKPADVTVDGSLSSQFLTGLLLAYAAADASDVAIKVTNLKSRPYIDLTLDVMKRFGLKTPENRNYEEFYFKAGNVYDETKMQRYTVEGDWSGGAFLLVAGAIAGPITVRGLDIASTQADKAIVQALMSANAGIAIDAKEIKLHPADLNAFEFDATDCPDLFPPLVALASYCKGETKIKGVSRLAHKESDRGLTLQDEFGKMGVEIHLEGDLMRVIGGKGVKGAEVSSRHDHRIAMACAVAALKAVGETTIEHAEAVNKSYPDFYSDLKQLGGVVSLNHQFNFS
modifications: GRG1 variant - GRG1(EVO5)
Km / affinity for PEP (in words) (EPSP synthase): good affinity for PEP | glyphosate resistance (in words, kinetic analysis) (EPSP synthase; relative to GRG1): improved glyphosate resistance

B2: GRG1(EVO6): GRG1(EVO5) with N186 to K change (SEQ ID NO:57) (protein)
chain: MKVTIQPGDLTGIIQSPASKSSMQRACAAALVAKGISEIINPGHSNDDKAARDIVSRLGARLEDQPDGSLQITSEGVKPVAPFIECGESGLSSRIFTPLVALSKEEVTIKGSGSLVTRPMDFFDEILPHLGVKVKSNQGKLPLVIQGPLKPADVTVDGSLSSQFLTGLLLAYAAADASDVAIKVTKLKSRPYIDLTLDVMKRFGLKTPENRNYEEFYFKAGNVYDETKMQRYTVEGDWSGGAFLLVAGAIAGPITVRGLDIASTQADKAIVQALMSANAGIAIDAKEIKLHPADLNAFEFDATDCPDLFPPLVALASYCKGETKIKGVSRLAHKESDRGLTLQDEFGKMGVEIHLEGDLMRVIGGKGVKGAEVSSRHDHRIAMACAVAALKAVGETTIEHAEAVNKSYPDFYSDLKQLGGVVSLNHQFNFS
modifications: GRG1 variant - GRG1(EVO6)
soluble protein [8]: substantial increase in soluble protein

B3: GRG1(5.2.B6): GRG1(EVO5) with V351 to A change (SEQ ID NO:58) (protein)
chain: MKVTIQPGDLTGIIQSPASKSSMQRACAAALVAKGISEIINPGHSNDDKAARDIVSRLGARLEDQPDGSLQITSEGVKPVAPFIECGESGLSSRLFTPLVALSKEEVTIKGSGSLVTRPMDFFDEILPHLGVKVKSNQGKLPLVIQGPLKPADVTVDGSLSSQFLTGLLLAYAAADASDVAIKVTKLKSRPYIDLTLDVMKRFGLKTPENRNYEEFYFKAGNVYDETKMQRYTVEGDWSGGAFLLVAGAIAGPITVRGLDIASTQADKAIVQALMSANAGIAIDAKEIKLHPADLNAFEFDATDCPDLFPPLVALASYCKGETKIKGVSRLAHKESDRGLTLQDEFGKMGVEIHLEGDLMRVIGGKGVKGAEVSSRHDHRIAMACAVAALKAVGETTIEHAEAVNKSYPDFYSDLKQLGGVVSLNHQFNFS
modifications: GRG1 variant - GRG1(EVO7)
soluble protein [8]: substantial increase in soluble protein
